Experimental data as given in US10597388B2, “Pyridazinone herbicides” (FMC CORPORATION, priority 2014, dated 2020).

Assays:
Type in all cases: in vivo
[1] = test system: foxtail, giant (giant foxtail, Setaria faberii); test: Test A greenhouse herbicide test, pre- and postemergence
In short: (§1)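 Seeds sown in loam–sand blend got a preemergence directed soil spray of compound in non-phytotoxic solvent with surfactant. Postemergence treatment was given at 2–10 cm, one- to two-leaf stage. After ~10 d in greenhouse, injury was rated visually vs untreated controls, 0 (no effect) to 100 (complete control).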

[2] = test system: ryegrass, Italian (Italian ryegrass, Lolium multiflorum); test: as above
In short: as §1

[3] = test system: barnyardgrass (Echinochloa crus-galli); test: Test B flooded paddy test; conditions: 250 g ai/ha, Flood; visual rating on scale of 0 to 100 where 0 is no effect and 100 is complete control; 13 to 15 d after treatment
In short: (§2)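 Plants at the 2-leaf stage were flooded to 3 cm above soil, and test compounds were applied directly into the paddy water, which was held at that depth throughout. After 13 to 15 d in a greenhouse, injury was rated visually against untreated controls on a 0–100 scale (0 no effect, 100 complete control).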

[4] = test system: ducksalad (Heteranthera limosa); test: Test B flooded paddy test; conditions: 250 g ai/ha, Flood; visual rating on scale of 0 to 100 where 0 is no effect and 100 is complete control; 13 to 15 d after treatment
In short: as §2

[5] = test system: rice (Oryza sativa); test: Test B flooded paddy test; conditions: 250 g ai/ha, Flood; visual rating on scale of 0 to 100 where 0 is no effect and 100 is complete control; 13 to 15 d after treatment
In short: as §2

[6] = test system: sedge, umbrella (small-flower umbrella sedge, Cyperus difformis); test: Test B flooded paddy test; conditions: 250 g ai/ha, Flood; visual rating on scale of 0 to 100 where 0 is no effect and 100 is complete control; 13 to 15 d after treatment
In short: as §2

[7] = test system: chickweed (common chickweed, Stellaria media); test: Test C greenhouse herbicide test, postemergence
In short: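 Plants grown in potting mix of peat moss, vermiculite, wetting agent and starter nutrients were sprayed postemergence at 2 to 18 cm height (1- to 4-leaf stage). After 13 to 15 d in the greenhouse, injury was visually rated against untreated controls on a 0–100 scale (0 no effect, 100 complete control).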

[8] = Postemergence, 125 g ai/ha, 0 to 100 scale where 0 is no effect and 100 is complete control
[9] = Postemergence, 500 g ai/ha, visual rating after approx. 10 d, 0 to 100 scale (0 no effect, 100 complete control)
[10] = Preemergence, 125 g ai/ha, 0 to 100 scale where 0 is no effect and 100 is complete control
[11] = Preemergence, 500 g ai/ha, 0 to 100 scale where 0 is no effect and 100 is complete control
[12] = Postemergence, 31 g ai/ha, scale 0 to 100 (0 no effect, 100 complete control)
[13] = Postemergence, 125 g ai/ha, scale 0 to 100, 0 is no effect, 100 is complete control
[14] = Postemergence, 250 g ai/ha, scale 0 to 100, 0 no effect, 100 complete control, 13 to 15 d
[15] = postemergence, 62 g ai/ha, scale 0 to 100, 0 no effect, 100 complete control
[16] = Postemergence, 62 g ai/ha, 0 to 100 scale (0 no effect, 100 complete control)
[17] = postemergence, 125 g ai/ha, scale 0 to 100, 0 no effect, 100 complete control
[18] = Postemergence, 125 g ai/ha, 0 to 100 scale, 0 no effect, 100 complete control
[19] = Preemergence, 125 g ai/ha, visual injury rating, 0 to 100 scale (0 no effect, 100 complete control), approx. 10 d
[20] = Postemergence, 250 g ai/ha, scale 0 to 100, 0 is no effect, 100 is complete control

Row | SMILES | Plant response rating, Foxtail, Giant [1, 8] | Plant response rating, Foxtail, Giant [1, 9] | Foxtail, Giant plant response rating [1, 10] | Plant response rating, Foxtail, Giant [1, 11] | Plant response rating, Ryegrass, Italian [2, 8] | Plant response rating, Ryegrass, Italian [2, 9] | Ryegrass, Italian plant response rating [2, 10] | Plant response rating, Ryegrass, Italian [2, 11] | Plant response rating, Barnyardgrass [3] | Plant response rating, Ducksalad [4] | Plant response rating, Rice [5] | Plant response rating, Sedge, Umbrella [6] | Plant response rating, Chickweed [7, 12] | Plant response rating, Chickweed [7, 14] | Chickweed plant response rating [7, 16] | Chickweed plant response rating [7, 17] | Plant response rating, Foxtail, Giant [1, 18] | Plant response rating, Foxtail, Giant [1, 19] | Plant response rating, Ryegrass, Italian [2, 18] | Plant response rating, Ryegrass, Italian [2, 19] | other results
1 | Cc1sc2ccc(Cl)cc2c1-c1c(OS(C)(=O)=O)c(Cl)nn(C)c1=O [Compound 114] | 70 | 90 | 40 | 90 | 90 | 90 | 80 | 90 | 0 | 50 | 0 | 70 | 90 | 98 |  |  |  |  |  |  | Plant response rating, Chickweed [7, 13]: 98; Chickweed plant response rating [7, 15]: 95
2 | Cc1nn(C)c(=O)c(-c2cc(F)cc3ccccc23)c1OS(C)(=O)=O [Compound 115] | 20 | 90 | 30 | 50 | 100 | 100 | 100 | 100 | 0 | 0 | 0 | 0 | 80 | 90 |  |  |  |  |  |  | Plant response rating, Chickweed [7, 13]: 90; Chickweed plant response rating [7, 15]: 75
3 | Cc1nn(C)c(=O)c(-c2ccc(F)c3ccccc23)c1OC(=O)CC(F)(F)F [Compound 123] | 50 | 60 | 70 | 70 | 90 | 100 | 90 | 100 | 20 | 30 | 15 | 70 | 90 | 98 |  |  |  |  |  |  | Plant response rating, Chickweed [7, 13]: 90; Chickweed plant response rating [7, 15]: 90
4 | Cc1ccc2ccccc2c1-c1c(O)c(Cl)nn(C)c1=O [Compound 125] | 90 | 90 | 90 | 100 | 100 | 100 | 100 | 100 | 0 | 80 | 0 | 75 | 95 | 95 |  |  |  |  |  |  | Plant response rating, Chickweed [7, 13]: 95; Chickweed plant response rating [7, 15]: 95
5 | Cc1nn(C)c(=O)c(-c2cccc3ccc(C#N)cc23)c1O [Compound 127] | 10 | 60 | 50 | 60 | 80 | 90 | 60 | 90 | 0 | 0 | 0 | 0 | 50 | 95 | 90 | 90 |  |  |  |  | 
6 | COC(=O)Oc1cnn(C)c(=O)c1-c1c(C)ccc2ccccc12 [Compound 143] | 20 | 60 | 20 | 70 | 80 | 100 |  | 100 | 0 | 0 | 0 | 0 | 45 |  | 70 | 80 |  |  |  |  | Plant response rating, Chickweed ([7]; Postemergence, 16 g ai/ha, scale 0 to 100 (0 no effect, 100 complete control)): 30
7 | CC(=O)Oc1c(C)nn(C)c(=O)c1-c1c(C)cc(C)c2ccccc12 [Compound 153] |  | 90 |  | 100 |  | 100 |  | 100 | 0 | 0 | 0 | 0 | 90 | 98 | 95 | 98 | 90 | 100 | 100 | 100 | 
8 | Cc1cc(C)c2ccccc2c1-c1c(OS(C)(=O)=O)c(C)nn(C)c1=O [Compound 154] |  | 90 |  | 100 |  | 100 |  | 100 | 50 | 60 | 50 | 80 | 90 | 95 | 90 | 90 | 90 | 90 | 90 | 90 | 
9 | COC(=O)Oc1c(C)nn(C)c(=O)c1-c1c([N+](=O)[O-])ccc2ccccc12 [Compound 162] |  | 40 |  | 40 |  | 90 |  | 100 | 0 | 0 | 0 | 0 | 90 | 95 | 90 | 95 | 20 | 10 | 60 | 40 | 
10 | CC(=O)Oc1c(C)nn(C)c(=O)c1-c1c([N+](=O)[O-])ccc2ccccc12 [Compound 164] |  | 30 |  | 40 |  | 90 |  | 100 | 0 | 0 | 0 | 0 | 80 |  | 90 | 95 | 20 | 10 | 70 | 60 | Plant response rating, Chickweed [7, 20]: 98
11 | CSCC(=O)Oc1c(C)nn(C)c(=O)c1-c1cccc2ccccc12 [Compound 171] |  | 90 |  | 100 |  | 100 |  | 100 | 0 | 0 | 0 | 60 | 90 |  | 90 | 90 | 40 | 50 | 100 | 100 | Plant response rating, Chickweed [7, 20]: 95
